Results taken from ChEMBL document CHEMBL4831506, “Discovery of novel trimethoxyphenylbenzo[d]oxazoles as dual tubulin/PDE4 inhibitors capable of inducing apoptosis at G2/M phase arrest in glioma and lung cancer cells” (Eur J Med Chem, 2021).

Legend:
[1] = system: A549; assay: Induction of apoptosis in human A549 cells assessed as increase in apoptotic cells at 500 nM measured after 24 hrs by PI/FITC analysis (reference value: 1.437%); type: functional
[2] = system: U-251; assay: Cell cycle arrest in human U-251 cells assessed as G2/M phase at 1000 nM measured after 24 hrs by propidium iodide based flow cytometry analysis (reference value: 14.43%); type: functional
[3] = system: U-251; assay: Cell cycle arrest in human U-251 cells assessed as S phase at 200 nM measured after 24 hrs by propidium iodide staining based flow cytometry analysis (reference value: 18.23%); type: functional
[4] = system: A549; assay: Cell cycle arrest in human A549 cells assessed as S phase at 500 nM measured after 24 hrs by propidium iodide staining based flow cytometry analysis (reference value: 14.78%); type: functional
[5] = system: A549; assay: Cell cycle arrest in human A549 cells assessed as increase in cyclin B1 expression by Western blot analysis; type: functional, cell-based; conditions: dose 50-500 nM
[6] = system: U-251; assay: Induction of apoptosis in human U-251 cells assessed as increase in necrotic cells at 500 nM measured after 24 hrs by PI/FITC analysis (reference value: 0.301%); type: functional
[7] = system: U-251; assay: Induction of apoptosis in human U-251 cells assessed as increase in viable cells at 200 nM measured after 24 hrs by PI/FITC analysis (reference value: 98.3%); type: functional
[8] = system: A549; assay: Cell cycle arrest in human A549 cells assessed as S phase at 50 nM measured after 24 hrs by propidium iodide staining based flow cytometry analysis (reference value: 14.78%); type: functional
[9] = system: A549; assay: Induction of apoptosis in human A549 cells assessed as increase in viable cells at 500 nM measured after 24 hrs by PI/FITC analysis (reference value: 98.4%); type: functional
[10] = system: U-251; assay: Induction of apoptosis in human U-251 cells assessed as increase in early apoptotic cells at 200 nM measured after 24 hrs by PI/FITC analysis (reference value: 1.12%); type: functional
[11] = system: U-251; assay: Cell cycle arrest in human U-251 cells assessed as G2/M phase at 500 nM measured after 24 hrs by propidium iodide staining based flow cytometry analysis (reference value: 14.43%); type: functional
[12] = system: U-251; assay: Cell cycle arrest in human U-251 cells assessed as S phase at 1000 nM measured after 24 hrs by propidium iodide staining based flow cytometry analysis (reference value: 18.23%); type: functional
[13] = system: A549; assay: Induction of apoptosis in human A549 cells assessed as increase in necrotic cells at 50 nM measured after 24 hrs by PI/FITC analysis (reference value: 0.365%); type: functional
[14] = system: A549; assay: Cell cycle arrest in human A549 cells assessed as G0/G1 phase at 200 nM measured after 24 hrs by propidium iodide staining based flow cytometry analysis (reference value: 79.14%); type: functional
[15] = system: U-251; assay: Cell cycle arrest in human U-251 cells assessed as G0/G1 phase at 1000 nM measured after 24 hrs by propidium iodide staining based flow cytometry analysis (reference value: 67.34%); type: functional
[16] = molecular target: 3',5'-cyclic-AMP phosphodiesterase 4C (Homo sapiens, UniProt Q08493); assay: Inhibition of PDE4 CAT (unknown origin)
[17] = system: U-251; assay: Induction of apoptosis in human U-251 cells assessed as increase in viable cells at 1000 nM measured after 24 hrs by PI/FITC analysis (reference value: 98.3%); type: functional

3',5'-cyclic-AMP phosphodiesterase 4C, sequence (Q08493 whole entry): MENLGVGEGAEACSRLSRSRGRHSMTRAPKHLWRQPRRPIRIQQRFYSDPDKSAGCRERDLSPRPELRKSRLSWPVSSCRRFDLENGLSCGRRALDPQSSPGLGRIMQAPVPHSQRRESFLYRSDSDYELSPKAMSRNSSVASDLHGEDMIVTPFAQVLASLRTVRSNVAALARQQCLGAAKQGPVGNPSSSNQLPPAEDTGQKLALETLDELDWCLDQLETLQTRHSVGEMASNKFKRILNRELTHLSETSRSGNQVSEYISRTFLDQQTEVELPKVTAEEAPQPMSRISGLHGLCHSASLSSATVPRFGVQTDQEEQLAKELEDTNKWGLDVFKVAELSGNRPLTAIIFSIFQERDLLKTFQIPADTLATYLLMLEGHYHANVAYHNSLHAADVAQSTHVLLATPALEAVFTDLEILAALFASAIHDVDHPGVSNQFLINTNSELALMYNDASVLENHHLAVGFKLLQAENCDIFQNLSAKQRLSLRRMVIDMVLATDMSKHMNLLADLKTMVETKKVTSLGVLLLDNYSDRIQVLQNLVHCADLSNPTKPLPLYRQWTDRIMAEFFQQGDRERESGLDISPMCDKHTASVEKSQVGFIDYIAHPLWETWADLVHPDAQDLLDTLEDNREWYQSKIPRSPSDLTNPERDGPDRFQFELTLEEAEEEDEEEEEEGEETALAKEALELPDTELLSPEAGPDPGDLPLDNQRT

IC50 [16]: 1.25 µM
SMILES: COc1cc(-c2cccc3nc(-c4ccc5cc[nH]c5c4)oc23)cc(OC)c1OC
Activity [1]: 26.5%
Activity [2]: 71.69%
Activity [3]: 18.32%
Activity [4]: 28.03%
Activity [5]: Dose-Dependent Effect
Activity [6]: 2.92%
Activity [7]: 98%
Activity [8]: 24.79%
Activity [9]: 70.7%
Activity [10]: 3.09%
Activity [11]: 42.9%
Activity [12]: 14.77%
Activity [13]: 0.603%
Activity [14]: 15.24%
Activity [15]: 13.54%
Activity [17]: 77.4%
